Assay: wn = mass fraction of the nth substance listed
Details: 101 kPa, Liquid; for viscosity: Falling or rolling sphere viscometry; for speed of sound: Frequency=3 MHz, Single path-length method; for mass density: Vibrating tube method

Cl.NNC(N)=O [semicarbazide hydrochloride] + O
Details	mass density, w1 = 0.01 [kg/m3]	mass density, w1 = 0.02 [kg/m3]	speed of sound, w1 = 0.01 [m/s]	speed of sound, w1 = 0.02 [m/s]	viscosity, w1 = 0.01 [mPa·s]	viscosity, w1 = 0.02 [mPa·s]
293.15 K	1002.51	1006.71	1490	1495.8	1.016	1.031
298.15 K	1001.29	1005.43	1503	1509	0.9018	0.9134
303.15 K	999.819	1003.99	1515.1	1520.9	0.8053	0.8152
308.15 K	998.185	1002.31	1525.6	1531.2	0.7251	0.733
313.15 K	996.304	1000.34	1534.3	1540	0.6562	0.6646
318.15 K	994.429	998.472	1540.7	1546.7	0.6021	0.6062

From the NIST ThermoML archive (doi:10.1016/j.jct.2019.03.011)
